For orientation: Ki means a dissociation constant, usually derived from enzyme kinetics or from competition with a known ligand. A high value points to lower affinity.

One assay deals with T1, CHO-hB2 cell membranes (Homo sapiens, UniProt P30411).
T1 construct: purchased Receptor Biology, Inc. (Baltimore, MD); host or cells: CHO-hB2 cells (membranes)
T1 sequence (P30411 1-391): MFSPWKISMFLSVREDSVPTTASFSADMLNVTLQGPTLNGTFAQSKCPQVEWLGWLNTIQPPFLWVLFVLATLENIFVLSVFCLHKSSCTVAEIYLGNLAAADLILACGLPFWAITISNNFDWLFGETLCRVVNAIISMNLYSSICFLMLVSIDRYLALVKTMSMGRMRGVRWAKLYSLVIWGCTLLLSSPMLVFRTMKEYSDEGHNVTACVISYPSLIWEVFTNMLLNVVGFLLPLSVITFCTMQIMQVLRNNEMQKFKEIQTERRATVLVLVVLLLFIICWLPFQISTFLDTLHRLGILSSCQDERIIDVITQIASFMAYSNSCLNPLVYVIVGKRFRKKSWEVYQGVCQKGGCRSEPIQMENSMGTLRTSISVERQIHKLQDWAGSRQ
Put plainly: [35S]GTPγS Binding Assay in CHO-hB2 Cell Membranes. The conditions noted are these: for Functional Activity (% Basal): number in parentheses, bradykinin-stimulated [35S]GTPγS binding, test concentration not given; for Functional Activity: word part of the cell, effect on bradykinin-stimulated [35S]GTPγS binding. The class given is biochemical. Here is the method: CHO-hB2 cell membranes were purchased from Receptor Biology, Inc. (Baltimore,MD). 10 mg/mL of membrane protein was suspended in 10 mM TRIS-HC pH 7.2, 2 mM EDTA, 10% sucrose.
Membranes were added into 15 mL ice cold binding assay buffer. The assay buffer contained 50 mM HEPES, pH 7.6, 5 mM MgCl2, 100 mM NaCl, 1 mM DTT and 1 mM EDTA. The membrane suspension was homogenized twice with a Polytron and centrifuged at 3000 rpm for 10 min. The supernatant was then centrifuged at 18,000 rpm for 20 min. The pellet was saved in a tube and resuspended.
The pellet membranes (40 µg/mL) were preincubated with SPA (scintillation proximity assay) beads (20 mg/mL) at 25C° for 45 min in the assay buffer. The SPA beads (5 mg/mL) coupled with membranes (10 µg/mL) were then incubated with 0.5 nM [^35S]GTPγS in the same HEPES buffer containing 50 µM GDP in total volume of 200 µL. Bradykinin was used to stimulate [^35S]GTPγS binding. Varying concentrations of drugs were incubated with bradykinin to inhibit bradykinin-stimulated [^35S]GTPγS binding. The basal binding was tested in the absence of bradykinin and no specific binding was tested in the present 10 µM unlabeled GTPγS. The radioactivity was quantified on a Packard Top Count, and calculated. % of Basal = (stimulated binding-non specific binding)/(basal binding-non specific binding) × 100. [formula]
In general terms: GTPγS is a poorly hydrolysed GTP analogue; its binding reports G protein activation.

For assay [1], the target named is T2, human B2 bradykinin receptors (Homo sapiens, UniProt P30411).
T2 construct: purchased Receptor Biology, Inc. (Baltimore, MD); host or cells: CHO-K1 cells transfected with the human B2 receptor (membranes)
T2 sequence (P30411 1-391): T1 sequence (P30411 1-391)
Put plainly: Bradykinin B2 (BK2) Receptor Binding Assay. The conditions noted are these: membranes of CHO-K1 cells transfected with human B2 bradykinin receptors; ~0.25 nM [3H]NPC17731; 60 min at 25°C. Here is the method:
Cell membranes of CHO-K1 cells transfected with human B2 bradykinin receptors (CH)-hB2) were purchased from Receptor Biology, Inc. (Baltimore,MD).
Samples were harvested on a Brandel Cell Harvester on to Wallac filtermat B sheets (96 sample format), and washed three times with 2 mL cold HEPES-buffer (10 mM, pH 7.5), and dried in a microwave oven.
The data were used to calculate either the % inhibition compared to control binding (when only a single concentration of test compound was evaluated) or a Ki value (when a range of concentrations were tested). Background was subtracted from mean cpm values and % inhibition was calculated as: [(total dpm-test compound dpm)/(total dpm-nonspecific dpm)]x100. Kd and Ki values were calculated using GraphPad PRISM data analysis program.

The structures appear in SMILES notation.

With `Cc1ccc2cccc(OCc3c(Cl)ccc(N(C)C(=O)Cc4cc(C(=O)c5ccc(C#N)cc5)n(C)c4)c3Cl)c2n1` [Compound 4, 2-[5-(4-Cyano-benzoyl)-1-methyl-1H-pyrrol-3-yl]-N-[2,4-dichloro-3-(2-methyl-quinolin-8-yloxymethyl)-phenyl]-N-methyl-acetamide], on CHO-hB2 cell membranes, the “Functional Activity (% Basal)” value came to 24 % Basal and the “Functional Activity” value was “Antagonist”. This molecule yielded an inhibition constant Ki in assay [1] of 1350 nM.

Consider `COc1ccc(C(=O)c2ccc(CC(=O)N(C)c3ccc(Cl)c(COc4cccc5ccc(C)nc45)c3Cl)[nH]2)cc1` [Compound 5], for which, at CHO-hB2 cell membranes, the “Functional Activity (% Basal)” value stood at 61 % Basal and the “Functional Activity” value was “Antagonist”. The molecule also gave a Ki in assay [1] of 71 nM.

In the case of `CCCn1c(CC(=O)N(C)c2ccc(Cl)c(COc3cccc4ccc(C)nc34)c2Cl)ccc1C(=O)c1ccc(C#N)cc1` [Compound 9], on CHO-hB2 cell membranes, the “Functional Activity (% Basal)” value came out at 1 % Basal and the “Functional Activity” value is given as “No effect”. The molecule further had a Ki in assay [1] of 27 nM.

With `CCCCn1c(CC(=O)N(C)c2ccc(Cl)c(COc3cccc4ccc(C)nc34)c2Cl)ccc1C(=O)c1ccc(C#N)cc1` [Compound 10], at CHO-hB2 cell membranes, the “Functional Activity (% Basal)” value came to 1 % Basal and the “Functional Activity” value is reported as “No effect”. In assay [1], this molecule yielded a Ki of 29 nM.

On to `Cc1ccc2cccc(OCc3c(Cl)ccc(N(C)C(=O)Cc4ccc(C(=O)c5ccc(C#N)cc5)n4CC4CC4)c3Cl)c2n1` [Compound 11, 2-[5-(4-Cyano-benzoyl)-1-cyclopropylmethyl-1H-pyrrol-2-yl]-N-[2,4-dichloro-3-(2-methyl-quinolin-8-yloxymethyl)-phenyl]-N-methyl-acetamide], for which, at CHO-hB2 cell membranes, the “Functional Activity (% Basal)” value stood at 1 % Basal and the “Functional Activity” value is given as “No effect”. Moreover, the Ki in assay [1] was found to be 48 nM.

Take `Cc1ccc2cccc(OCc3c(Cl)ccc(N(C)C(=O)Cc4ccc(C(=O)c5ccc(C#N)cc5)n4CC(C)C)c3Cl)c2n1` [Compound 12]: on CHO-hB2 cell membranes, the “Functional Activity (% Basal)” value is given as 1 % Basal and the “Functional Activity” value is “No effect”. The same molecule registered a Ki in assay [1] of 54 nM.

Regarding `Cc1ccc2cccc(OCc3c(Cl)ccc(N(C)C(=O)Cc4ccc(C(=O)c5ccc(C#N)cc5)n4CCC(C)C)c3Cl)c2n1` [Compound 13], at CHO-hB2 cell membranes, the “Functional Activity (% Basal)” value was determined as 1 % Basal and the “Functional Activity” value is “No effect”. This molecule gave an inhibitory constant (Ki) in assay [1] of 44 nM.

For `Cc1ccc2cccc(OCc3c(Cl)ccc(NC(=O)Cc4ccc(C(=O)c5ccc(C#N)cc5)n4C)c3Cl)c2n1` [Compound 15], the “Functional Activity” value at CHO-hB2 cell membranes was “Weak antagonist”.

For the molecule `CCN(C(=O)Cc1ccc(C(=O)c2ccc(C#N)cc2)n1C)c1ccc(Cl)c(COc2cccc3ccc(C)nc23)c1Cl` [Compound 18], at CHO-hB2 cell membranes, the “Functional Activity (% Basal)” value is reported as 1 % Basal and the “Functional Activity” value is reported as “No effect”. In assay [1], the affinity, expressed as Ki, was 55 nM.

As to `Cc1ccc2cccc(OCc3c(Cl)ccc(N(C)C(=O)Cc4ccc(C(=O)CN5CCC(c6ccccc6)CC5)n4C)c3Cl)c2n1` [Compound 58, N-[2,4-Dichloro-3-(2-methyl-quinolin-8-yloxymethyl)-phenyl]-N-methyl-2-{1-methyl-5-[2-(4-phenyl-piperidin-1-yl)-acetyl]-1H-pyrrol-2-yl}-acetamide], at CHO-hB2 cell membranes, the “Functional Activity (% Basal)” value is on record as 1 % Basal and the “Functional Activity” value was “No effect”. Besides, the affinity in assay [1] corresponds to a Ki of 293 nM.

Consider `Cc1ccc2cccc(OCc3c(Cl)ccc(N(C)C(=O)Cc4ccc(C(=O)CN5CCC(Cc6ccccc6)CC5)n4C)c3Cl)c2n1` [Compound 59], for which, at CHO-hB2 cell membranes, the “Functional Activity (% Basal)” value was determined as 1 % Basal and the “Functional Activity” value was “No effect”. Further, the affinity in assay [1], expressed as Ki, was 291 nM.

Take `Cc1ccc2cccc(OCc3c(Cl)ccc(N(C)C(=O)Cc4ccc(C(=O)c5cccs5)n4C)c3Cl)c2n1` [Compound 61]: on CHO-hB2 cell membranes, the “Functional Activity (% Basal)” value came out at 12 % Basal and the “Functional Activity” value was “Weak antagonist”. The Ki in assay [1] came out at 393 nM.

Regarding `Cc1ccc2cccc(OCc3c(Cl)ccc(N(C)C(=O)Cc4ccc(C(=O)c5ccc(C(=O)N(C)C)cc5)n4C)c3Cl)c2n1` [Compound 62, 4-[5-({[2,4-Dichloro-3-(2-methyl-quinolin-8-yloxymethyl)-phenyl]-methylcarbamoyl}-methyl)-1-methyl-1H-pyrrole-2-carbonyl]-N,N-dimethyl-benzamide], at CHO-hB2 cell membranes, the “Functional Activity (% Basal)” value came out at 59 % Basal and the “Functional Activity” value is “Antagonist”. In assay [1], this molecule showed a Ki of 204 nM.

Consider `Cc1ccc2cccc(OCc3c(Cl)ccc(N(C)C(=O)Cc4ccc(C(=O)c5ccc([N+](=O)[O-])cc5)n4C)c3Cl)c2n1` [Compound 63], for which, on CHO-hB2 cell membranes, the “Functional Activity (% Basal)” value is on record as 33 % Basal and the “Functional Activity” value is given as “Antagonist”. The molecule also registered a Ki in assay [1] of 178 nM.

Consider `COC(=O)c1ccc(C(=O)c2ccc(CC(=O)N(C)c3ccc(Cl)c(COc4cccc5ccc(C)nc45)c3Cl)n2C)cc1` [Compound 64], for which, at CHO-hB2 cell membranes, the “Functional Activity (% Basal)” value is listed as 45 % Basal and the “Functional Activity” value is “Antagonist”. Also, in assay [1], the Ki is 161 nM.

`Cc1ccc2cccc(OCc3c(Cl)ccc(N(C)C(=O)Cc4ccc(C(=O)c5ccc([N+](=O)[O-])c(C)c5)n4C)c3Cl)c2n1` [Compound 65, N-[2,4-Dichloro-3-(2-methyl-quinolin-8-yloxymethyl)-phenyl]-N-methyl-2-[1-methyl-5-(3-methyl-4-nitro-benzoyl)-1H-pyrrol-2-yl]-acetamide]: at CHO-hB2 cell membranes, the “Functional Activity (% Basal)” value is recorded as 35 % Basal and the “Functional Activity” value is listed as “Antagonist”. This molecule also yielded an inhibition constant Ki in assay [1] of 151 nM.

As for `Cc1ccc2cccc(OCc3c(Cl)ccc(N(C)C(=O)Cc4ccc(C(=O)c5ccccc5[N+](=O)[O-])n4C)c3Cl)c2n1` [Compound 66], on CHO-hB2 cell membranes, the “Functional Activity (% Basal)” value was 35 % Basal and the “Functional Activity” value is “Antagonist”. For the same molecule, the affinity in assay [1] corresponds to a Ki of 169 nM.

Take `COc1ccc(C(=O)c2ccc(CC(=O)N(C)c3ccc(Cl)c(COc4cccc5ccc(C)nc45)c3Cl)n2C)cc1` [Compound 68]: at CHO-hB2 cell membranes, the “Functional Activity (% Basal)” value is listed as 4 % Basal and the “Functional Activity” value is given as “Weak antagonist”. This molecule also displayed a Ki in assay [1] of 189 nM.

As for `CSc1ccc(C(=O)c2ccc(CC(=O)N(C)c3ccc(Cl)c(COc4cccc5ccc(C)nc45)c3Cl)n2C)cc1` [Compound 69], on CHO-hB2 cell membranes, the “Functional Activity (% Basal)” value was determined as 41 % Basal and the “Functional Activity” value is “Antagonist”. The molecule also displayed a Ki in assay [1] of 109 nM.

As for `Cc1ccc2cccc(OCc3c(Cl)ccc(N(C)C(=O)Cc4ccc(C(=O)c5ccc(C#N)nc5)n4C)c3Cl)c2n1` [Compound 71], at CHO-hB2 cell membranes, the “Functional Activity (% Basal)” value is recorded as 79 % Basal and the “Functional Activity” value is given as “Antagonist”. Further, the Ki in assay [1] is 74 nM.

In the case of `CC(=O)Nc1cccc(C(=O)c2ccc(CC(=O)N(C)c3ccc(Cl)c(COc4cccc5ccc(C)nc45)c3Cl)n2C)c1` [Compound 72], on CHO-hB2 cell membranes, the “Functional Activity (% Basal)” value was found to be 74 % Basal and the “Functional Activity” value was “Antagonist”. The molecule further returned a Ki in assay [1] of 85 nM.

In assay [1], `COc1ccc(C(=O)c2ccc(CC(=O)Nc3ccc(Cl)c(COc4cccc5ccc(C)nc45)c3Cl)n2C)cc1` [Compound 119] came in with a Ki of 14000 nM.

As to `COc1ccc(C(=O)c2c(C)cc(CC(=O)Nc3ccc(Cl)c(COc4cccc5ccc(C)nc45)c3Cl)n2C)cc1` [Compound 120], the Ki in assay [1] came to 1560 nM.

On to `Cc1ccc2cccc(OCc3c(Cl)ccc(NC(=O)Cc4cc(C)c(C(=O)c5ccc(N)cc5)n4C)c3Cl)c2n1` [Compound 121], for which the affinity in assay [1], expressed as Ki, was 19800 nM.

The values are drawn from patent EP1914236A1 (Ortho-McNeil Pharmaceutical, Inc., priority 2002, dated 2003).
